Key:
Aphis gossypii = experiment: Test Example 3: treatment of the foot of a cucumber seedling, then inoculation with Aphis gossypii; assay type: in vivo; settings: 200 ppm, 5 ml at foot of cucumber seedling, inoculated after 7 days at 25° C., checked after 6 days, Formulation Example 5
Method: The present compound (7) was formulated by the method in Formulation Example 5. This formulation was diluted with water so that the active ingredient concentration was 200 ppm, to prepare a diluted solution for test. The diluted solution for test (5 ml) was used to treat a foot of a cucumber seedling (first true leaf spreading stage) planted in a plastic cup. This cucumber was left in a greenhouse at 25° C. for 7 days. Then; the cucumber leaf surface was inoculated with 30 Aphis gossypii (whole stage). This cucumber was further left in the greenhouse for 6 days, then, the insect number of living Aphis gossypii parasitic on the leaves of this cucumber was checked, and the control value was calculated according to the following formula. Control value (%)={1−(Cb×Tai)/(Cai×Tb)}×100 Letters in the formula represent the following meanings. Cb: insect number before treatment on non-treated area Cai: insect number in observation on non-treated area Tb: insect number before treatment on treated area Tai: insect number in observation on treated area

Bemisia tabaci = experiment: Test Example 4: spray on tomato seedling carrying Bemisia tabaci eggs/larvae; assay type: in vivo; settings: 200 ppm, 10 ml/cup sprayed on tomato seedling, larvae checked after 7 days at 25° C., Formulation Example 5
Method: The present compounds (1), (4) to (7), (9) to (12) and (14) to (19) were formulated by the method in Formulation Example 5. This formulation was diluted with water so that the active ingredient concentration was 200 ppm, to prepare a diluted solution for test. On a tomato seedling planted in a plastic cup, Bemisia tabaci adult insects were released and allowed to lay eggs for about 24 hours. The tomato seedling was left in a greenhouse for 8 days. Thereafter, the diluted solution for test was sprayed in a proportion of 10 ml/cup. Further, this tomato seedling was placed in a greenhouse at 25° C. for 7 days. Thereafter, the number of larvae living on the tomato leaves was checked, and the control value was calculated according to the following formula. Control value (%)={1−(Cb×Tai)/(Cai×Tb)}×100 Letters in the formula represent the following meanings. Cb: insect number before treatment on non-treated area Cai: insect number in observation on non-treated area Tb: insect number before treatment on treated area Tai: insect number in observation on treated area

SMILES | Control value (Aphis gossypii) [%] | Control value (Bemisia tabaci) [%]
CCS(=O)(=O)c1cnccc1-c1nc2cc(C(F)(F)F)ccc2s1 [compound 7] | ≥ 90 | 
Fc1cnccc1-c1nc2cc(C(F)(F)F)ccc2s1 [compound 1] |  | ≥ 90
